Values joined by “and” are separate entries in the source; they are usually repeats but may differ in a detail not shown here. Equal entries are not always repeated. Toxic doses and inconclusive results are not listed.
Test system: BDF1 mice, P388 leukemia ip, median survival T/C
Assay: NCI In Vivo Anticancer Drug Screen. Data for tumor model P388 Leukemia (intraperitoneal) in B6D2F1 (BDF1) mice
Details: endpoint: median survival time, higher = longer survival
Method in brief: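 Read-out is survival of treated animals expressed relative to the vehicle group, as a T/C ratio.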

[1] = dose: 12.5 mg/kg/injection, schedule: Q04DX003 (ip), vehicle: water
[2] = dose: 50.0 mg/kg/injection, schedule: Q04DX003 (ip), vehicle: water
[3] = dose: 100.0 mg/kg/injection, schedule: Q04DX003 (ip), vehicle: saline with Tween-80
[4] = dose: 200.0 mg/kg/injection, schedule: Q04DX003 (ip), vehicle: saline with Tween-80
[5] = dose: 400.0 mg/kg/injection, schedule: Q04DX003 (ip), vehicle: saline with Tween-80
[6] = dose: 100.0 mg/kg/injection, schedule: Q01DX009 (ip), vehicle: saline with Tween-80
[7] = dose: 200.0 mg/kg/injection, schedule: Q01DX009 (ip), vehicle: saline with Tween-80
[8] = dose: 50.0 mg/kg/injection, schedule: Q01DX009 (ip), vehicle: saline with Tween-80

O=C1/C(=N/O)Cc2ccccc21
T/C (dose: 0.1 mg/kg/injection, schedule: Q01DX009 (ip), vehicle: water): 101 % of control | T/C (dose: 0.2 mg/kg/injection, schedule: Q01DX009 (ip), vehicle: water): 103 % of control and 108 % of control | T/C (dose: 0.8 mg/kg/injection, schedule: Q01DX009 (ip), vehicle: water): 106 % of control | T/C (dose: 1.2 mg/kg/injection, schedule: Q01DX009 (ip), vehicle: water): 108 % of control | T/C (dose: 2.4 mg/kg/injection, schedule: Q01DX009 (ip), vehicle: water): 96 % of control | T/C (dose: 3.12 mg/kg/injection, schedule: Q04DX003 (ip), vehicle: water): 106 % of control | T/C (dose: 6.25 mg/kg/injection, schedule: Q04DX003 (ip), vehicle: water): 97 % of control | T/C [1]: 115 % of control | T/C (dose: 25.0 mg/kg/injection, schedule: Q04DX003 (ip), vehicle: water): 104 % of control | T/C [2]: 106 % of control

CCCCCn1c(Cl)c(/C=N\Nc2ccccc2[N+](=O)[O-])c2ccccc21
T/C (dose: 100.0 mg/kg/injection, schedule: Q01DX001 (ip), vehicle: Klucel (hydroxypropylcellulose) (HPC)): 105 % of control | T/C (dose: 200.0 mg/kg/injection, schedule: Q01DX001 (ip), vehicle: Klucel (hydroxypropylcellulose) (HPC)): 96 % of control | T/C (dose: 400.0 mg/kg/injection, schedule: Q01DX001 (ip), vehicle: Klucel (hydroxypropylcellulose) (HPC)): 118 % of control

CC(=O)CC(C)=O.CC(=O)CC(C)=O.Cc1ncc[nH]1.Cc1ncc[nH]1.[Co]
T/C (dose: 12.5 mg/kg/injection, schedule: Q01DX001 (ip), vehicle: saline with Tween-80): 100 % of control | T/C (dose: 25.0 mg/kg/injection, schedule: Q01DX001 (ip), vehicle: saline with Tween-80): 97 % of control | T/C (dose: 50.0 mg/kg/injection, schedule: Q01DX001 (ip), vehicle: saline with Tween-80): 113 % of control

COc1cc(O)c2c(c1)Cc1cc(C)cc(O)c1C2=O
T/C (dose: 6.25 mg/kg/injection, schedule: Q01DX009 (ip), vehicle: saline with Tween-80): 101 % of control | T/C (dose: 12.5 mg/kg/injection, schedule: Q01DX009 (ip), vehicle: saline with Tween-80): 109 % of control

CCN(Cc1ccc(Cl)c(Cl)c1)c1ccc2nc(N)nc(N)c2c1C
T/C (dose: 1.56 mg/kg/injection, schedule: Q01DX009 (ip), vehicle: water): 105 % of control | T/C (dose: 6.25 mg/kg/injection, schedule: Q01DX009 (ip), vehicle: water): 151 % of control | T/C (dose: 12.5 mg/kg/injection, schedule: Q01DX009 (ip), vehicle: water): 98 % of control | T/C (dose: 12.5 mg/kg/injection, schedule: Q04DX003 (ip), vehicle: Klucel (hydroxypropylcellulose) (HPC)): 107 % of control | T/C [1]: 103 % of control and 118 % of control | T/C (dose: 25.0 mg/kg/injection, schedule: Q01DX009 (ip), vehicle: water): 89 % of control | T/C (dose: 25.0 mg/kg/injection, schedule: Q04DX003 (ip), vehicle: Klucel (hydroxypropylcellulose) (HPC)): 109 % of control | T/C (dose: 50.0 mg/kg/injection, schedule: Q04DX003 (ip), vehicle: Klucel (hydroxypropylcellulose) (HPC)): 115 % of control | T/C [2]: 159 % of control and 189 % of control | T/C (dose: 100.0 mg/kg/injection, schedule: Q04DX003 (ip), vehicle: Klucel (hydroxypropylcellulose) (HPC)): 88 % of control | T/C (dose: 100.0 mg/kg/injection, schedule: Q04DX003 (ip), vehicle: water): 109 % of control

CS(=O)(=O)OCCCNCCCOS(C)(=O)=O
T/C (dose: 10.0 mg/kg/injection, schedule: Q01DX009 (ip), vehicle: saline): 228 % of control | T/C (dose: 10.0 mg/kg/injection, schedule: Q01DX010 (ip), vehicle: saline): 255 % of control | T/C (dose: 12.0 mg/kg/injection, schedule: Q04DX003 (ip), vehicle: saline): 186 % of control | T/C (dose: 19.0 mg/kg/injection, schedule: Q04DX003 (ip), vehicle: saline): 204 % of control | T/C (dose: 20.0 mg/kg/injection, schedule: Q01DX009 (ip), vehicle: saline): 255 % of control | T/C (dose: 20.0 mg/kg/injection, schedule: Q01DX010 (ip), vehicle: saline): 300 % of control | T/C (dose: 29.0 mg/kg/injection, schedule: Q04DX003 (ip), vehicle: saline): 209 % of control | T/C (dose: 40.0 mg/kg/injection, schedule: Q01DX009 (ip), vehicle: saline): 282 % of control | T/C (dose: 40.0 mg/kg/injection, schedule: Q01DX010 (ip), vehicle: saline): 300 % of control | T/C (dose: 45.0 mg/kg/injection, schedule: Q04DX003 (ip), vehicle: saline): 240 % of control | T/C (dose: 66.0 mg/kg/injection, schedule: Q04DX003 (ip), vehicle: saline): 245 % of control | T/C (dose: 80.0 mg/kg/injection, schedule: Q01DX010 (ip), vehicle: saline): 94 % of control | T/C (dose: 150.0 mg/kg/injection, schedule: Q04DX003 (ip), vehicle: saline): 300 % of control

CC(C)CN1CC(=O)N2CCCN2C(=O)C1
T/C (dose: 50.0 mg/kg/injection, schedule: Q01DX005 (ip), vehicle: saline): 94 % of control | T/C (dose: 100.0 mg/kg/injection, schedule: Q01DX005 (ip), vehicle: saline): 108 % of control | T/C (dose: 200.0 mg/kg/injection, schedule: Q01DX005 (ip), vehicle: saline): 103 % of control

N#[N+]N=c1c(=NN=[N-])c(=O)c2ccccc2c1=O
T/C (dose: 3.0 mg/kg/injection, schedule: Q01DX009 (ip), vehicle: saline with Tween-80): 90 % of control | T/C (dose: 6.0 mg/kg/injection, schedule: Q01DX009 (ip), vehicle: saline with Tween-80): 87 % of control | T/C (dose: 12.0 mg/kg/injection, schedule: Q01DX009 (ip), vehicle: saline with Tween-80): 95 % of control

C[N+]1(C)N=C([O-])N(c2ccccc2Cl)C1=O
T/C [3]: 100 % of control | T/C [4]: 108 % of control | T/C [5]: 99 % of control

O=C(Nc1ccc(Cl)cc1C(=O)c1ccccn1)c1ccccc1
T/C [4]: 120 % of control | T/C [5]: 110 % of control

NC(Cc1c[nH]c2cc(N(CCCl)CCCl)ccc12)C(=O)O (configuration not stated)
T/C (dose: 0.75 mg/kg/injection, schedule: Q01DX009 (sc), vehicle: olive oil, sesame oil, peanut oil): 115 % of control | T/C (dose: 1.5 mg/kg/injection, schedule: Q01DX009 (sc), vehicle: olive oil, sesame oil, peanut oil): 123 % of control | T/C (dose: 1.5 mg/kg/injection, schedule: Q04DX003 (sc), vehicle: olive oil, sesame oil, peanut oil): 113 % of control | T/C (dose: 3.0 mg/kg/injection, schedule: Q01DX009 (sc), vehicle: olive oil, sesame oil, peanut oil): 100 % of control | T/C (dose: 3.0 mg/kg/injection, schedule: Q04DX003 (sc), vehicle: olive oil, sesame oil, peanut oil): 177 % of control | T/C (dose: 4.5 mg/kg/injection, schedule: Q04DX003 (sc), vehicle: olive oil, sesame oil, peanut oil): 162 % of control | T/C (dose: 6.0 mg/kg/injection, schedule: Q04DX003 (sc), vehicle: olive oil, sesame oil, peanut oil): 154 % of control

O=C(CCl)N1c2ccccc2Oc2cc3ccccc3cc21
T/C [6]: 104 % of control | T/C [3]: 104 % of control | T/C [7]: 90 % of control | T/C [4]: 100 % of control | T/C (dose: 400.0 mg/kg/injection, schedule: Q01DX009 (ip), vehicle: saline with Tween-80): 104 % of control | T/C [5]: 113 % of control

O=C1C=C(NCc2ccccc2)CCC1
T/C (dose: 25.0 mg/kg/injection, schedule: Q01DX009 (ip), vehicle: saline with Tween-80): 108 % of control | T/C [8]: 100 % of control | T/C (dose: 50.0 mg/kg/injection, schedule: Q01DX009 (ip), vehicle: saline): 96 % of control | T/C (dose: 200.0 mg/kg/injection, schedule: Q01DX009 (ip), vehicle: saline): 105 % of control

CC(=O)Nc1ccc2c(c1)C(N)c1ccccc1-2 (configuration not stated)
T/C [8]: 100 % of control | T/C [6]: 104 % of control | T/C (dose: 133.0 mg/kg/injection, schedule: Q01DX009 (ip), vehicle: Klucel (hydroxypropylcellulose) (HPC)): 95 % of control | T/C (dose: 200.0 mg/kg/injection, schedule: Q01DX009 (ip), vehicle: Klucel (hydroxypropylcellulose) (HPC)): 105 % of control | T/C [7]: 87 % of control | T/C (dose: 300.0 mg/kg/injection, schedule: Q01DX009 (ip), vehicle: Klucel (hydroxypropylcellulose) (HPC)): 100 % of control

COC(=O)[C@@H](C)[C@@H](O)[C@@H](C)N
T/C [3]: 101 % of control | T/C [4]: 99 % of control | T/C [5]: 103 % of control

CS(=O)(=O)OCCN(CCOS(C)(=O)=O)c1ccccc1
T/C (dose: 16.5 mg/kg/injection, schedule: Q04DX003 (ip), vehicle: saline with Tween-80): 150 % of control | T/C (dose: 16.5 mg/kg/injection, schedule: Q04DX003 (ip), vehicle: saline): 113 % of control | T/C (dose: 37.5 mg/kg/injection, schedule: Q04DX003 (ip), vehicle: saline with Tween-80): 222 % of control

Reference: PubChem BioAssay AID328 (DTP/NCI, 2004)
